Laboratory results as given in patent US20050260150A1, “Polyol polyester-containing personal care products that do not contain low viscosity silicone fluids” (INOLEX INVESTMENT CORP., priority 2004, published 2005).

Key:
[1] = Kinematic viscosity at 25° C. (ASTM D-445-97); type: physicochemical
Description: Kinematic viscosity was tested at 25° C. using ASTM (American Society of Testing and Materials, West Conshohocken, Pa., United States of America) Official Method No. D-445-97 (1997), the contents of which are incorporated herein by reference. Color was measured using ASTM D-1209-97 (1997), acid value was determined using ASTM D-972-95 (1995) and hydroxyl number was determined using a modified version of AOCS (American Oil Chemists Society, Champaign, Ill., United States of America) Official Method No. Cd-13-60 (1997), the contents of which are incorporated herein by reference. Odor was determined using a subjective olfactory assessment.

[2] = Spreading characteristics on WHATMAN filter paper (50 microliters); type: physicochemical; conditions: for Spreadibility (1 minute) / Spreadibility (3 minutes) / Spreadibility (5 minutes): 50 microliters on filter paper
Description: The spreading characteristics of fluid used in personal care products are an effective predictor of “skin feel.” To test the spreading characteristics a four inch WHATMAN® filter paper was positioned horizontally over an eight ounce jar. Fifty microliters of each product were then pipetted onto the center of the filter paper. The spreading area of the liquid was then measured at intervals of one, three, and five minutes. Faster spreading products will have a higher spreading area at each time interval.

Compound	Viscosity at 25° C. [1] [cSt]	Spreadibility (1 minute) [2] [cm]	Spreadibility (3 minutes) [2] [cm]	Spreadibility (5 minutes) [2] [cm]	Spreadibility (1 minute) ([2]; listed as D5 Fluid) [cm]	Spreadibility (3 minutes) ([2]; listed as D5 Fluid) [cm]	Spreadibility (5 minutes) ([2]; listed as D5 Fluid) [cm]	viscosity ([1]; stated in description) [centistokes]	spreading (in words) ([2]; stated in description)
CCCCCC(=O)OCCOCCOC(=O)CCCCC [DEGDH, diethylene glycol dihexanoate]	14.4	2.98	3.43	3.68					
CCC(CC)C(=O)OCC(C)(C)COC(=O)C(CC)CC [ND2EB, neopentyl glycol di-2-ethylbutyrate]	7.6	3.00	3.43	3.63					
CC(C)C(=O)OCC(C)(C)COC(=O)C(C)C [NDI]	3.5	3.18	3.63	3.88					
CCCCC(=O)OCC(C)(C)COC(=O)CCCC [NDP, neopentyl glycol dipentanoate]	5.1	3.08	3.48	3.85				5.1	rapidly spreading

Continued, values first:

Viscosity at 25° C. [1] [cSt]	Spreadibility (1 minute) [2] [cm]	Spreadibility (3 minutes) [2] [cm]	Spreadibility (5 minutes) [2] [cm]	Spreadibility (1 minute) ([2]; listed as D5 Fluid) [cm]	Spreadibility (3 minutes) ([2]; listed as D5 Fluid) [cm]	Spreadibility (5 minutes) ([2]; listed as D5 Fluid) [cm]	viscosity ([1]; stated in description) [centistokes]	spreading (in words) ([2]; stated in description)	Compound
	3.10	3.50	3.60						C[Si]1(C)O[Si](C)(C)O[Si](C)(C)O[Si](C)(C)O1 [Example D4, reference compound]
4.0	2.90	3.40	3.60	2.9	3.4	3.6			C[Si]1(C)O[Si](C)(C)O[Si](C)(C)O[Si](C)(C)O[Si](C)(C)O1 [Example D5, reference compound]
